Molecules are shown by their SMILES. Some results are limits rather than exact numbers.

Assay [1] concerns the target T1, HiBit-KRAS^G12C (Homo sapiens, UniProt P01116, G12C). Kind of assay: HiBit degradation assay in MiaPaCa-2 HiBit-KRas^G12C cells. Format: cell-based. To be noted: 24 hours; for Dmax: maximum degradation. An outline of the steps: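 MiaPaCa-2 cells with CRISPR N-terminal HiBit knock-in on one endogenous KRAS^G12C allele, treated 24 hours at 37° C with compound titrated 10 μM to 20 nM (0.1% or 0.5% DMSO). Lytic HiBit luminescence normalized to DMSO, 4-parameter fit giving DC50 and Dmax; points cytotoxic to […] cells by alamar blue excluded.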

The target in assay [2] is T1, HiBit-KRAS^G12C. Kind of assay: HiBit degradation assay in SW1573 HiBit-KRas^G12C cells. Type of assay: cell-based. On the set-up: expressed in transfected cells; host or cells: SW1573 (clone E6), modified pcDNA3.1 vector, TK promoter. To be noted: 24 hours. An outline of the steps: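 SW1573 cells stably expressing N-terminally HiBit-tagged KRAS G12C, under the TK promoter, were treated 24 h at 37 °C with 10 μM to 20 nM compound in 0.1% or 0.5% DMSO. Residual HiBit luminescence normalised to DMSO and fitted with a 4-parameter model for DC50 and Dmax. Points with ≥50% viability loss (alamar blue) excluded.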
In general terms: HiBiT is a short tag that completes a luciferase, so light tracks the accessible tagged protein.

T1 sequence (P01116 1-186 isoform P01116-2 G12C limits assumed): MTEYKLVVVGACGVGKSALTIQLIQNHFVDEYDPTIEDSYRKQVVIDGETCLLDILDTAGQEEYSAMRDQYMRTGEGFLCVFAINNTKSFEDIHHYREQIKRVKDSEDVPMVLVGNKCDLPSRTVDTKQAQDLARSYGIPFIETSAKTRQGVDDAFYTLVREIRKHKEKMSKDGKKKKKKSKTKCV

In the case of `C=CC(=O)N1CCN(c2nc(O[C@H](C)CN3CC(OC4CCN(CC(=O)N[C@H](C(=O)N5C[C@H](O)C[C@H]5C(=O)N[C@@H](C)c5ccc(-c6scnc6C)cc5)C(C)(C)C)CC4)C3)nc3c(F)c(-c4cc(O)cc5ccccc45)c(Cl)cc23)CC1` [Compound 46, (2S,4R)-1-[(2S)-2-{2-[4-({1-[(2R)-2-{[6-chloro-8-fluoro-7-(3-hydroxynaphthalen-1-yl)-4-[4-(prop-2-enoyl)piperazin-1-yl]quinazolin-2-yl]oxy}propyl]azetidin-3-yl}oxy)piperidin-1-yl]acetamido}-3,3-dimethylbutanoyl]-4-hydroxy-N-[(1S)-1-[4-(4-methyl-1,3-thiazol-5-yl)phenyl]ethyl]pyrrolidine-2-carboxamide], the Dmax at HiBit-KRAS^G12C [1] (MIA PaCa-2, read-out: KRas^G12C-HiBiT (MiaPaCa; 0.1% DMSO) DMax, MiaPaCa-2 HiBit-KRas^G12C cells, 0.1% DMSO) is less than 35%; on HiBit-KRAS^G12C [1] (MIA PaCa-2, read-out: KRas^G12C-HiBiT (MiaPaCa; 0.5% DMSO) DMax, MiaPaCa-2 HiBit-KRas^G12C cells, 0.5% DMSO), 35 to 70%; at HiBit-KRAS^G12C [2] (SW1573, read-out: KRas^G12C-HiBiT (SW1573; 0.5% DMSO) Dmax**, SW1573 HiBit-KRas^G12C, 0.5% DMSO), 35 to 70%; at HiBit-KRAS^G12C [2] (SW1573, read-out: KRas^G12C-HiBit (SW1573; 0.1% DMSO) Dmax**, SW1573 HiBit-KRas^G12C, 0.1% DMSO), 35 to 70%. The DC50 on HiBit-KRAS^G12C [2] (SW1573 HiBit-KRas^G12C, 0.1% DMSO, read-out: KRas^G12C-HIBit (SW1573; 0.1% DMSO) DC50*) lay in the range of 100 to 1000 nM.
Regarding `C=CC(=O)N1CCN(c2nc(N3CCN(C[C@H]4C[C@H](OCC(=O)N[C@H](C(=O)N5C[C@H](O)C[C@H]5C(=O)N[C@@H](C)c5ccc(-c6scnc6C)cc5)C(C)(C)C)C4)CC3)nc3c(F)c(-c4cc(O)cc5ccccc45)c(Cl)cc23)C[C@@H]1CC#N` [Compound 114, (2S,4R)-1-[(2S)-3,3-dimethyl-2-{2-[(1r,3r)-3-[(4-{6-chloro-4-[(3S)-3-(cyanomethyl)-4-(prop-2-enoyl)piperazin-1-yl]-8-fluoro-7-(3-hydroxynaphthalen-1-yl)quinazolin-2-yl}piperazin-1-yl)methyl]cyclobutoxy]acetamido}butanoyl]-4-hydroxy-N-[(1S)-1-[4-(4-methyl-1,3-thiazol-5-yl)phenyl]ethyl]pyrrolidine-2-carboxamide], the Dmax on HiBit-KRAS^G12C [1] (MIA PaCa-2, MiaPaCa-2 HiBit-KRas^G12C cells, 0.5% DMSO, read-out: KRas^G12C-HiBiT (MiaPaCa; 0.5% DMSO) DMax) is less than 35%; at HiBit-KRAS^G12C [2] (SW1573, SW1573 HiBit-KRas^G12C, 0.5% DMSO, read-out: KRas^G12C-HiBiT (SW1573; 0.5% DMSO) Dmax**), 35 to 70%. The DC50 at HiBit-KRAS^G12C [1] (read-out: KRas^G12C-HiBiT (MiaPaCa; 0.5% DMSO) IC50, MiaPaCa-2 HiBit-KRas^G12C cells, 0.5% DMSO) lay within 100 to 1000 nM; at HiBit-KRAS^G12C [2] (read-out: KRas^G12C-HiBiT (SW1573; 0.5% DMSO) IC50***, SW1573 HiBit-KRas^G12C, 0.5% DMSO) it was 100 to 1000 nM.

The record behind these values is US20220370416A1, “COMPOUNDS AND METHODS FOR TARGETED DEGRADATION OF KRAS” (Arvinas Operations, Inc., priority 2020, published 2022).
